Experimental data reported in patent US20240174605A1, “ARYLSULFONAMIDES AS OREXIN RECEPTOR AGONISTS” (RESEARCH TRIANGLE INSTITUTE, priority 2021, published 2024).
Converted amounts (≈) assume the structure as drawn. “Also recorded” adds a separate entry of the source. Where two headings read alike, the source gives them in different places. Values belong to the compound of their own block, whether it stands above or below them.

Key:
human OX2 receptor = target: T1, human OX2 receptor (Homo sapiens, UniProt O43614); test: OX2R calcium mobilization assay; type: cell-based; settings: for Emax: Table 10; for agonist potency at OX2R, in words: calcium mobilization
T1 construct: host or cells: CHO RD-HGA16 cells
T1 sequence (O43614 1-444): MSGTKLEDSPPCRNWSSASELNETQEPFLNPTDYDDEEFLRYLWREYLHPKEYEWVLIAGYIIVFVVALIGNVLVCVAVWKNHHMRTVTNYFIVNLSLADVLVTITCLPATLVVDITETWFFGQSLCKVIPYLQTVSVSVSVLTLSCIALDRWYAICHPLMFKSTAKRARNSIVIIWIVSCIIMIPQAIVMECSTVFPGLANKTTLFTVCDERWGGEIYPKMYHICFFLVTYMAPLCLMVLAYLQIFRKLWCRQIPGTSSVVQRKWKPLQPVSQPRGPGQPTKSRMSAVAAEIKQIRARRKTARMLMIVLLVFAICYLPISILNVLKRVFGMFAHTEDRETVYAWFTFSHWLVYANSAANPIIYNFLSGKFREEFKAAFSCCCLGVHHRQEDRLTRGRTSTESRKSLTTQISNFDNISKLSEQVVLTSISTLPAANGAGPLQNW
Protocol: (§1) Activity of the target compounds at the human OX1 and OX2 receptors was determined utilizing CHO RD-HGA16 cells (Molecular Devices) engineered to stably express either the human OX1 or the human OX2 receptor. Cells were maintained in Ham's F12 supplemented with 10% fetal bovine serum, 100 units of penicillin and streptomycin, and 100 μg/mL normocin™. To conduct the assay, cells were plated at 25,000 cells/well and incubated overnight at 37° C., 5% CO2. The next day, cells were washed with assay buffer and loaded with Calcium 5 dye (Molecular Devices). After 45 minutes, cells were pretreated with a 9% DMSO solution for 15 minutes.
(§2) All of the synthesized compounds were characterized for their agonist potencies in the calcium mobilization assays using CHO cells overexpressing either the OX1R or OX2R. Reference is made to German, N. A.; Decker, A. M.; Gilmour, B. P.; Thomas, B. F.; Zhang, Y., Truncated Orexin Peptides: Structure-Activity Relationship Studies.

[1] = Aqueous solubility at pH 2; type: physicochemical; settings: aqueous medium at pH 2, pH 2, simulated gastric fluid
Description: (§3) The main structural difference is the pyridyl group connected to the sulfonamide in RTIOXA-47, as compared to the other 3 compounds. The replacement of a phenyl group with a pyridyl reduced the electron density of this aromatic ring.

[2] = Metabolic stability in rat liver microsomes (RLM); type: in vitro ADME; settings: for metabolic stability in rat liver microsomes, in words: RLM; for half-life: rat, rat liver microsomes, read-out: t1/2 (RLM)
Description: as §3

σ1 = σ1 (Homo sapiens, UniProt Q99720); test: Target selectivity: σ1; type: binding
wild-type mice = settings: 40 mg/kg i.p., salt form; cited from earlier work
OX1R [3] = target: T2, OX1R (Homo sapiens, UniProt O43613); test: OX1R calcium mobilization assay; type: cell-based; parameters: host or cells: CHO RD-HGA16 cells; settings: for OX1/OX2: ratio of OX1 to OX2 potency value; for agonist potency at OX1R, in words: calcium mobilization
T2 sequence (O43613 1-425): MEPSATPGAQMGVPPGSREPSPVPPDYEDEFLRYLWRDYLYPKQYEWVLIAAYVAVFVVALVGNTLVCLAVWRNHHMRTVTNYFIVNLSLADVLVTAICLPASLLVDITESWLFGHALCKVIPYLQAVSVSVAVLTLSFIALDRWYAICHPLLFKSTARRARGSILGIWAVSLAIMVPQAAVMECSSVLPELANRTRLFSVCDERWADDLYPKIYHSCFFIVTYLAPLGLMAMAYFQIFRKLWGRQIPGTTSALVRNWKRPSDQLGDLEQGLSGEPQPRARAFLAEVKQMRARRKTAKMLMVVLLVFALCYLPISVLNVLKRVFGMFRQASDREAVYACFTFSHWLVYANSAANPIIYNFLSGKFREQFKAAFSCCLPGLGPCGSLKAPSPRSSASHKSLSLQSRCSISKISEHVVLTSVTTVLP
Protocol: as §1, §2

Half-life in vivo = settings: read-out: t1/2 (in vivo) (converted)
OX1R [4] = target: T2, OX1R; settings: literature; cited from earlier work
both orexin receptors = settings: literature (Turku et al. 2017); cited from earlier work
[5] = literature (Turku et al. 2017); cited from earlier work
[6] = CHO RD-HGA16 cells expressing human OX2, calcium mobilization, read-out: EC50 (OX2)
[7] = CHO RD-HGA16 cells expressing human OX1, calcium mobilization, read-out: EC50 (OX1)

Sequence of σ1 (Q99720 whole entry): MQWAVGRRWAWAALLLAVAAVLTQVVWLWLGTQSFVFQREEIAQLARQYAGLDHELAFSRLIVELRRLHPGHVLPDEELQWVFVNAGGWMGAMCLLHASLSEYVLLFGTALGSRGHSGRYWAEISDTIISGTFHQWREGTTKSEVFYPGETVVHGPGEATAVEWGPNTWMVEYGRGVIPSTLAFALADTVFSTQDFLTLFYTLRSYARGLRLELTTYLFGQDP

Compound: CCN(CC)c1cccc(-c2ccc(OC)c(S(=O)(=O)Nc3cccc(NCCNC(=O)c4ccccc4N(C)C)c3)c2)c1 [Compound 8]
EC50 (OX1R [3]; [7]): > 10 µM | OX1/OX2 (OX1R [3]): >20

Compound: COc1ccc(-c2cccc(C(=O)N(C)C)c2)cc1S(=O)(=O)Nc1cccc(N2CCN(C(=O)c3ccccc3N(C)C)CC2)c1 [Compound 17]
EC50 (human OX2 receptor; [6]): > 10 µM | EC50 (OX1R [3]; [7]): > 10 µM

Compound: COc1ccc(-c2cccc(C(=O)N(C)C)c2)cc1C(=O)Nc1cccc(NCCNC(=O)c2cccc(C)c2)c1 [Compound 41]
agonist potency at OX1R, in words (OX1R [3]): inactive

Compound: COc1ccc(-c2cccc(C(=O)N(C)Cc3ccncc3)c2)cc1-c1nnc(Nc2cccc(NCCNC(=O)c3cccc(C)c3)c2)s1 [Compound 43]
agonist potency at OX2R, in words (human OX2 receptor): inactive | agonist potency at OX1R, in words (OX1R [3]): inactive

Compound: COc1ccc(-c2cccc(C(=O)N(C)Cc3ccncc3)c2)cc1-c1nnc(Nc2cccc(OCCNC(=O)c3cccc(C)c3)c2)s1 [Compound 44]
agonist potency at OX2R, in words (human OX2 receptor): inactive | agonist potency at OX1R, in words (OX1R [3]): inactive

Compound: COc1ccc(-c2cccc(C(=O)N(C)Cc3ccncc3)c2)cc1S(=O)(=O)Nc1cncc(OCCNC(=O)c2cccc(C)c2)c1 [Compound 55]
OX1/OX2 (OX1R [3]): 1.52

Compound: CCC(=O)NCCNc1cncc(NS(=O)(=O)c2cc(-c3cccc(C(=O)N(C)Cc4ccncc4)c3)ccc2OC)c1 [Compound 63]
OX1/OX2 (OX1R [3]): 0.48

Compound: CCCC(=O)NCCNc1cncc(NS(=O)(=O)c2cc(-c3cccc(C(=O)N(C)Cc4ccncc4)c3)ccc2OC)c1 [Compound 65]
OX1/OX2 (OX1R [3]): 0.60

Compound: CCCCC(=O)NCCNc1cncc(NS(=O)(=O)c2cc(-c3cccc(C(=O)N(C)Cc4ccncc4)c3)ccc2OC)c1 [Compound 66]
OX1/OX2 (OX1R [3]): 0.33

Compound: CCCCCC(=O)NCCNc1cncc(NS(=O)(=O)c2cc(-c3cccc(C(=O)N(C)Cc4ccncc4)c3)ccc2OC)c1 [Compound 67]
EC50 (human OX2 receptor): 0.0997 µM | EC50 (OX1R [3]): 0.0333 µM | OX1/OX2 (OX1R [3]): 0.33

Compound: COc1ccc(-c2cccc(C(=O)N(C)Cc3ccncc3)c2)cc1S(=O)(=O)Nc1cncc(NCCNC(=O)C2CCCCC2)c1 [Compound 68]
OX1/OX2 (OX1R [3]): 0.44

Compound: COc1ccc(-c2cccc(C(=O)N(C)Cc3ccncc3)c2)cc1S(=O)(=O)Nc1cncc(NCCNC(=O)CCC2CCCCC2)c1 [Compound 70]
OX1/OX2 (OX1R [3]): 0.72

Compound: COC(=O)N1CCC[C@H](NS(C)(=O)=O)[C@@H]1CO[C@H]1CC[C@@H](c2ccccc2)CC1 [TAK-925]
activity at OX1R, in words (OX1R [4]): little to no activity

Compound: Cc1ccc(Cn2c(=N)n(CC(O)c3ccc(Cl)c(Cl)c3)c3ccccc32)cc1 (stereo not drawn) [Yan7874]
EC50 (both orexin receptors): > 3.2 µM | cytotoxicity [5]: orexin receptor independent cytotoxicity

More lines, main results first:

Emax (human OX2 receptor): 94% | solubility [1]: > 400 µM | metabolic stability in rat liver microsomes, in words [2]: modest metabolic stability | half-life [2]: < 1 min | Ki (σ1): 2.5 µM | Emax (OX1R [3]; Table 10): 55%
Compound: COc1ccc(-c2cccc(C(=O)N(C)C)c2)cc1S(=O)(=O)Nc1cccc(NCCNC(=O)c2ccccc2N(C)C)c1 [Compound 1, reference compound]
body temperature (wild-type mice): without affecting body temperature

EC50 (human OX2 receptor; [6]): 0.252 µM
Compound: COc1ccc(-c2cccc(C(=O)N3CCCC3)c2)cc1S(=O)(=O)Nc1cccc(NCCNC(=O)c2ccccc2N(C)C)c1 [Compound 3]

EC50 (OX1R [3]; [7]): > 10 µM | OX1/OX2 (OX1R [3]): >20
Compound: CCCNC(=O)c1cccc(-c2ccc(OC)c(S(=O)(=O)Nc3cccc(NCCNC(=O)c4ccccc4N(C)C)c3)c2)c1 [Compound 4]

EC50 (OX1R [3]; [7]): 0.737 µM | OX1/OX2 (OX1R [3]): 3.32
Compound: CCN(CC)C(=O)c1cccc(-c2ccc(OC)c(S(=O)(=O)Nc3cccc(NCCNC(=O)c4ccccc4N(C)C)c3)c2)c1 [Compound 5]

EC50 (human OX2 receptor; [6]): > 10 µM | EC50 (OX1R [3]; [7]): > 10 µM
Compound: COc1ccc(-c2cccc(C(C)C)c2)cc1S(=O)(=O)Nc1cccc(NCCNC(=O)c2ccccc2N(C)C)c1 [Compound 6]

EC50 (human OX2 receptor; [6]): 2.13 µM | EC50 (OX1R [3]; [7]): > 10 µM | OX1/OX2 (OX1R [3]): >20
Compound: COc1ccc(-c2cccc(N(C)C)c2)cc1S(=O)(=O)Nc1cccc(NCCNC(=O)c2ccccc2N(C)C)c1 [Compound 7]

EC50 (human OX2 receptor; [6]): > 10 µM | EC50 (OX1R [3]; [7]): > 10 µM
Compound: CCCN(CCC)c1cccc(-c2ccc(OC)c(S(=O)(=O)Nc3cccc(NCCNC(=O)c4ccccc4N(C)C)c3)c2)c1 [Compound 9]

EC50 (human OX2 receptor; [6]): > 10 µM | EC50 (OX1R [3]; [7]): > 10 µM
Compound: COc1ccc(-c2cccc(C(C)(C)C)c2)cc1S(=O)(=O)Nc1cccc(NCCNC(=O)c2ccccc2N(C)C)c1 [Compound 10]

EC50 (human OX2 receptor; [6]): > 10 µM | EC50 (OX1R [3]; [7]): > 10 µM
Compound: COc1ccc(-c2cccc(C(F)(F)F)c2)cc1S(=O)(=O)Nc1cccc(NCCNC(=O)c2ccccc2N(C)C)c1 [Compound 11]

EC50 (human OX2 receptor; [6]): > 10 µM | EC50 (OX1R [3]; [7]): > 10 µM
Compound: COc1ccc(-c2cccc(C(=O)N(C)C)c2)cc1S(=O)(=O)Nc1cccc(N2CCN(C(=O)c3cccc(C)c3)CC2)c1 [Compound 18]

agonist potency at OX2R, in words (human OX2 receptor): sharp decrease of potency | agonist potency at OX1R, in words (OX1R [3]): complete loss of potency | OX1/OX2 (OX1R [3]): >10.0
Compound: COc1ccc(-c2cccc(C(=O)NCCN(C)C)c2)cc1S(=O)(=O)Nc1cccc(NCCNC(=O)c2cccc(C)c2)c1 [Compound 32]

OX1/OX2 (OX1R [3]): 4.69
Compound: COc1ccc(-c2cccc(C(=O)N(C)c3ccccn3)c2)cc1S(=O)(=O)Nc1cccc(NCCNC(=O)c2cccc(C)c2)c1 [Compound 33]

agonist potency at OX1R, in words (OX1R [3]): complete loss of the OX1R potency | OX1/OX2 (OX1R [3]): >20.0
Compound: COc1ccc(-c2cccc(C(=O)NCc3ccccn3)c2)cc1S(=O)(=O)Nc1cccc(NCCNC(=O)c2cccc(C)c2)c1 [Compound 36]

Emax (human OX2 receptor): 96% | agonist potency at OX2R, in words (human OX2 receptor): high and equal potency | solubility [1]: 313 µM (≈ 208 µg/mL) | metabolic stability in rat liver microsomes, in words [2]: modest metabolic stability | half-life [2]: 1.9 min | Emax (OX1R [3]; Table 10): 105% | EC50 (OX1R [3]; Table 10, read-out: OX1R EC50): 0.024 µM | agonist potency at OX1R, in words (OX1R [3]): high and equal potency | OX1/OX2 (OX1R [3]): 1.0
Compound: COc1ccc(-c2cccc(C(=O)N(C)Cc3ccncc3)c2)cc1S(=O)(=O)Nc1cccc(NCCNC(=O)c2cccc(C)c2)c1 [Compound 38]

OX1/OX2 (OX1R [3]): 2.78
Compound: COc1ccc(-c2cccc(C(=O)N(C)CCc3ccccn3)c2)cc1S(=O)(=O)Nc1cccc(NCCNC(=O)c2cccc(C)c2)c1 [Compound 39]

Emax (human OX2 receptor): 94% | solubility [1]: > 400 µM | metabolic stability in rat liver microsomes, in words [2]: modest metabolic stability | half-life [2]: 1.8 min | Emax (OX1R [3]; Table 10): 95%
Compound: COc1ccc(-c2cccc(C(=O)N(C)Cc3ccncc3)n2)cc1S(=O)(=O)Nc1cccc(NCCNC(=O)c2cccc(C)c2)c1 [Compound 59]

Emax (human OX2 receptor): 99% | solubility [1]: > 400 µM | half-life [2]: 39.7 min | half-life (Half-life in vivo): 318 min | Emax (OX1R [3]; Table 10): 101%
Compound: COc1ccc(-c2cccc(C(=O)N(C)Cc3ccncc3)c2)cc1S(=O)(=O)Nc1cncc(NCCNC(=O)c2cccc(C)c2)c1 [Compound 61]
metabolic stability in rat liver microsomes, in words ([2]; listed as RTIOXA-47): significantly improved half-life; also recorded: significantly improved metabolic stability

OX1/OX2 (OX1R [3]): 0.46
Compound: COc1ccc(-c2cccc(C(=O)N(C)Cc3ccncc3)c2)cc1S(=O)(=O)Nc1cncc(NCCNC(=O)C(C)C)c1 [Compound 64]

OX1/OX2 (OX1R [3]): 0.57
Compound: COc1ccc(-c2cccc(C(=O)N(C)Cc3ccncc3)c2)cc1S(=O)(=O)Nc1cncc(NCCNC(=O)CC2CCCC2)c1 [Compound 69]
